Results reported in patent publication US20250144223A1, “PROTEIN DEGRADATION COMPOUND BASED ON NAMPT TARGET PROTEIN AND APPLICATION THEREOF” (GLUETACS THERAPEUTICS (SHANGHAI) CO., LTD., priority 2021, published 2025).

Columns and labels:
Jurkat = assay: CellTiter-Glo Luminescent Cell Viability Assay, half inhibitory concentration (IC50) on tumor cell proliferation; format: cell-based; conditions: Homo sapiens, Jurkat cells, 72 h treatment
Procedure, shortened: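 Jurkat cells seeded at 20,000 cells/well in serum-containing RPMI1640, treated after 24 h with serially diluted compound for 72 h at 37 °C, 5% CO2. Viability read by CellTiter-Glo luminescence; IC50 calculated from growth-inhibition curves.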

HL60 tumor cells = assay: In vitro cytotoxicity assay against tumor cells (DAPI staining, flow cytometry); format: cell-based; conditions: 10 nM, 4th day
Experimental: (§1) The tumor cells used herein were cultured in a cell culture medium at 37° C. in an incubator with 5% CO2, where the cell culture medium was supplemented with 10% FBS, as well as penicillin at a final concentration of 100 U/mL and streptomycin at a final concentration of 100 μg/mL. Prior to experimentation, all cells used were identified as correct cells by STR cells, and were negative for mycoplasma through routine testing.
(§2) MOLT4 and HL60 tumor cells were seeded separately in 12-well plates containing 1 mL of RPMI1640 medium, with a cell seeding density of 0.5×10^6 cells/mL. On the second day, the parent inhibitor FK866 and the compounds SIAIS630120 and SIAIS630121 of the present disclosure were individually dissolved in DMSO to obtain stock solutions of the respective compounds at a concentration of 10 μM. Subsequently, 1 μL of the 10 μM compound stock solution was added to 1 mL of cell culture medium to achieve a final concentration of 10 nM. The cells were treated continuously for 4 days, and cell viability was measured once daily during this period. Specifically, cells were sampled once a day, adjusted to a concentration of 1×10^6/mL using a cell staining buffer, stained with 4′,6-diamidino-2-phenylindole dihydrochloride (DAPI) (1:250), and then analyzed with a flow cytometer. Initially, the cells were gated based on differences in cell size, followed by DAPI staining to gate for dead cells. Finally, the cytotoxic efficiency was assessed by calculating the DAPI-positive ratio.

[1] = molecular target: T1, intracellular NAMPT (iNAMPT) (Homo sapiens, UniProt P43490); assay: Western blot, NAMPT protein degradation (DC50) in SW620, HT29, MCF-7, BEL7404, MOLT4, Jurkat and HL60 cells; format: cell-based; conditions: tumor cells, 24 h
T1 construct: assess the expression levels of NAMPT protein in tumor cells treated with the compounds of the present disclosure; endogenous in cells; host or cells: SW620, HT29, MCF-7, BEL7404, MOLT4, Jurkat, HL60
Experimental: (§3) The tumor cells used herein were cultured in a cell culture medium at 37° C. in an incubator with 5% CO2, where the cell culture medium was supplemented with 10% FBS, as well as penicillin at a final concentration of 100 U/mL and streptomycin at a final concentration of 100 μg/mL.
(§4) Tumor cells were seeded at a specific cell density in a 6-well plate containing 2 mL of RPMI1640/DMEM medium. For SW620, HT29, MCF-7, and BEL7404 cells, the seeding density was 1×10^6 cells per well, respectively; for MOLT4, Jurkat, and HL60 cells, the seeding density was 0.5×10^6 cells/mL. […] After 24 hours of compound treatment, the supernatant was removed, and cells were washed with PBS. The cells were then placed on ice and treated with protein lysis buffer containing protease and phosphatase inhibitors. The lysate was centrifuged at 12,000 RPM for 15 minutes at 4° C., and the supernatant was collected. Equal amounts of protein were mixed with 5×SDS, and after denaturation at 95° C. for 5 minutes, the samples were either frozen at −20° C. or subjected to direct protein electrophoresis. SDS-PAGE was performed using equal amounts of protein, and proteins were transferred to a nitrocellulose membrane at 95 V and 4° C. for 90 minutes. After membrane transfer, the membrane was blocked with TBST containing 5% skim milk powder (purchased from Beijing Cowin Bioscience Co., Ltd.) at room temperature for 1 hour. […]

[2] = molecular target: T2, extracellular NAMPT (eNAMPT) (Homo sapiens, UniProt P43490); assay: Western blot, eNAMPT protein degradation in HL60 and MOLT4 cell lines; format: cell-based
T2 construct: degradation effects of compounds SIAIS630120 and SIAIS630121 of the present disclosure on eNAMPT protein in HL60 and MOLT4 cell lines; endogenous in cells; host or cells: HL60, MOLT4
Experimental: as §3, §4

hematological tumors = conditions: animal models; cited from earlier work
[3] = clinical trial results; cited from earlier work
MOLT4 tumor cells = assay: In vitro cytotoxicity assay against tumor cells (DAPI staining, flow cytometry); format: cell-based; conditions: 10 nM, 4th day; for cytotoxicity, more effective than FK866: difference to FK866
Experimental: as §1, §2

T2 sequence (P43490 whole entry): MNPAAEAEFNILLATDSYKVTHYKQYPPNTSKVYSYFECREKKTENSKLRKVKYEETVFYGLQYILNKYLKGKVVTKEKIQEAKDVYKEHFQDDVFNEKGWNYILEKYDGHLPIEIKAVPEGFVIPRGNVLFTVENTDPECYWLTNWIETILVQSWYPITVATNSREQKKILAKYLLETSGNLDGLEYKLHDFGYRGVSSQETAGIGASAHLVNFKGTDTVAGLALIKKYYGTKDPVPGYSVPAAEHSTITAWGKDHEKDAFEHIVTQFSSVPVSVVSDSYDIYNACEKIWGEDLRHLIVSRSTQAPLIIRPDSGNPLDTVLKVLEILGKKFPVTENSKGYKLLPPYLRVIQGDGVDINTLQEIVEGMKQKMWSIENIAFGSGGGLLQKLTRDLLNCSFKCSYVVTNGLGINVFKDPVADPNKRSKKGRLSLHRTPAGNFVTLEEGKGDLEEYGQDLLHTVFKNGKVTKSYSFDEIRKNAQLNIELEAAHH
T1 sequence (P43490 whole entry): as above

| IC50 (Jurkat) [nM] | SMILES | also measured |
| --- | --- | --- |
| 8.52 | O=C(/C=C/c1cccnc1)NCCCCC1CCN(C(=O)c2ccc(N3CCN(C(=O)CCCCCOc4cccc5c4C(=O)N(C4CCC(=O)NC4=O)C5=O)CC3)cc2)CC1 (stereo not shown) [SIAIS632035, (E)-N-(4-(1-(4-(4-(6-((2-(2,6-dioxopiperidin-3-yl)-1,3-dioxoisoindolin-4-yl)oxy)hexanoyl)piperazin-1-yl)benzoyl)piperidin-4-yl)butyl)-3-(pyridin-3-yl)acrylamide] |  |
| 29.3 | O=C(/C=C/c1cccnc1)NCCCCC1CCN(C(=O)c2ccc(N3CCN(C(=O)CCCCCCOc4cccc5c4C(=O)N(C4CCC(=O)NC4=O)C5=O)CC3)cc2)CC1 (stereo not shown) [SIAIS632036, (E)-N-(4-(1-(4-(4-(7-((2-(2,6-dioxopiperidin-3-yl)-1,3-dioxoisoindolin-4-yl)oxy)heptanoyl)piperazin-1-yl)benzoyl)piperidin-4-yl)butyl)-3-(pyridin-3-yl)acrylamide] |  |
| 2.75 | O=C(/C=C/c1cccnc1)NCCCCC1CCN(C(=O)c2ccc(N3CCN(CCCCCC#Cc4cccc5c4CN(C4CCC(=O)NC4=O)C5=O)CC3)nc2)CC1 (stereo not shown) [SIAIS632039, (E)-N-(4-(1-(6-(4-(7-(2-(2,6-dioxopiperidin-3-yl)-1-oxoisoindolin-4-yl)hept-6-yn-1-yl)piperazin-1-yl)nicotinoyl)piperidin-4-yl)butyl)-3-(pyridin-3-yl)acrylamide] |  |
| 5.67 | O=C(/C=C/c1cccnc1)NCCCCC1CCN(C(=O)c2ccc(N3CCN(CCCCCCC#Cc4cccc5c4CN(C4CCC(=O)NC4=O)C5=O)CC3)nc2)CC1 (stereo not shown) [SIAIS632040, (E)-N-(4-(1-(6-(4-(8-(2-(2,6-dioxopiperidin-3-yl)-1-oxoisoindolin-4-yl)oct-7-yn-1-yl)piperazin-1-yl)nicotinoyl)piperidin-4-yl)butyl)-3-(pyridin-3-yl)acrylamide] |  |
| 1.03 | O=C(/C=C/c1cccnc1)NCCCCC1CCN(C(=O)c2ccc(N3CCN(CCCCSc4cccc5c4CN(C4CCC(=O)NC4=O)C5=O)CC3)nc2)CC1 (stereo not shown) [SIAIS632041, (E)-N-(4-(1-(6-(4-(4-((2-(2,6-dioxopiperidin-3-yl)-1-oxoisoindolin-4-yl)thio)butyl)piperazin-1-yl)nicotinoyl)piperidin-4-yl)butyl)-3-(pyridin-3-yl)acrylamide] |  |
| 255 | Cc1ncsc1-c1ccc(CNC(=O)[C@@H]2C[C@@H](O)CN2C(=O)[C@@H](NC(=O)CCCCC(=O)N2CCN(C3CCN(c4ccc(C(=O)N5CCC(CCCCNC(=O)/C=C/c6cccnc6)CC5)nn4)CC3)CC2)C(C)(C)C)cc1 [SIAIS633063, (2S,4R)-1-((S)-3,3-dimethyl-2-(6-oxo-6-(4-(1-(6-(4-(4-((E)-3-(pyridin-3-yl)acrylamido)butyl)piperidine-1-carbonyl)pyridazin-3-yl)piperidin-4-yl)piperazin-1-yl)hexanamido)butanoyl)-4-hydroxy-N-(4-(4-methylthiazol-5-yl)benzyl)pyrrolidine-2-carboxamide] |  |
| 15.8 | O=C(/C=C/c1cccnc1)NCCCCC1CCN(C(=O)c2ccc(N3CCC(N4CCN(CCCCCC#Cc5cccc6c5CN(C5CCC(=O)NC5=O)C6=O)CC4)CC3)nc2)CC1 (stereo not shown) [SIAIS633093, (E)-N-(4-(1-(6-(4-(4-(7-(2-(2,6-dioxopiperidin-3-yl)-1-oxoisoindolin-4-yl)hept-6-yn-1-yl)piperazin-1-yl)piperidin-1-yl)nicotinoyl)piperidin-4-yl)butyl)-3-(pyridin-3-yl)acrylamide] |  |
| 6.18 | O=C(/C=C/c1cccnc1)NCCCCC1CCN(C(=O)c2ccc(N3CCC(N4CCN(CCCCCCC#Cc5cccc6c5CN(C5CCC(=O)NC5=O)C6=O)CC4)CC3)nc2)CC1 (stereo not shown) [SIAIS633094, (E)-N-(4-(1-(6-(4-(4-(8-(2-(2,6-dioxopiperidin-3-yl)-1-oxoisoindolin-4-yl)oct-7-yn-1-yl)piperazin-1-yl)piperidin-1-yl)nicotinoyl)piperidin-4-yl)butyl)-3-(pyridin-3-yl)acrylamide] |  |
| 79 | O=C(/C=C/c1cccnc1)NCCCCC1CCN(C(=O)c2ccc(N3CCN(CCCCCCOc4cccc5c4CN(C4CCC(=O)NC4=O)C5=O)CC3)cc2)CC1 (stereo not shown) [SIAIS633097, (E)-N-(4-(1-(4-(4-(6-((2-(2,6-dioxopiperidin-3-yl)-1-oxoisoindolin-4-yl)oxy)hexyl)piperazin-1-yl)benzoyl)piperidin-4-yl)butyl)-3-(pyridin-3-yl)acrylamide] |  |
| 33.9 | O=C(/C=C/c1cccnc1)NCCCCC1CCN(C(=O)c2ccc(N3CCN(CCCCCCCOc4cccc5c4CN(C4CCC(=O)NC4=O)C5=O)CC3)cc2)CC1 (stereo not shown) [SIAIS633098, (E)-N-(4-(1-(4-(4-(7-((2-(2,6-dioxopiperidin-3-yl)-1-oxoisoindolin-4-yl)oxy)heptyl)piperazin-1-yl)benzoyl)piperidin-4-yl)butyl)-3-(pyridin-3-yl)acrylamide] |  |

| SMILES | IC50 (Jurkat) [nM] | also measured |
| --- | --- | --- |
| O=C(/C=C/c1cccnc1)NCCCCC1CCN(C(=O)c2ccccc2)CC1 [FK866] | 0.635 | cytotoxic effect (DAPI-positive ratio) (HL60 tumor cells): less than 40%; degradation of intracellular NAMPT (iNAMPT) protein [1]: cannot degrade iNAMPT and eNAMPT proteins; degradation of extracellular NAMPT (eNAMPT) protein ([2]; 24 h, Western blot): cannot degrade iNAMPT and eNAMPT proteins; eNAMPT protein level compared to the DMSO control group ([2]; MOLT4 cells, 10 nM, FIG. 5): higher levels of eNAMPT protein; long-term survival of mice (hematological tumors): 80%; toxicities in clinical trial [3]: dose-limiting toxicities such as thrombocytopenia |
| O=C(/C=C/c1cccnc1)NCCCCC1CCN(C(=O)c2ccc(N3CCN(CCCCCC#Cc4cccc5c4CN(C4CCC(=O)NC4=O)C5=O)CC3)cc2)CC1 (stereo not shown) [SIAIS630120, (E)-N-(4-(1-(4-(4-(7-(2-(2,6-dioxopiperidin-3-yl)-1-oxoisoindolin-4-yl)hept-6-yn-1-yl)piperazin-1-yl)benzoyl)piperidin-4-yl)butyl)-3-(pyridin-3-yl)acrylamide] | 6.24 | cytotoxic effect (DAPI-positive ratio) (HL60 tumor cells): 95%; cytotoxicity (DAPI-positive ratio) (MOLT4 tumor cells): approximately 50%; cytotoxicity, more effective than FK866 (MOLT4 tumor cells): 20% |
| O=C(/C=C/c1cccnc1)NCCCCC1CCN(C(=O)c2ccc(N3CCN(CCCCCCC#Cc4cccc5c4CN(C4CCC(=O)NC4=O)C5=O)CC3)cc2)CC1 (stereo not shown) [SIAIS630121, (E)-N-(4-(1-(4-(4-(8-(2-(2,6-dioxopiperidin-3-yl)-1-oxoisoindolin-4-yl)oct-7-yn-1-yl)piperazin-1-yl)benzoyl)piperidin-4-yl)butyl)-3-(pyridin-3-yl)acrylamide] | 4.83 | cytotoxic effect (DAPI-positive ratio) (HL60 tumor cells): 95%; cytotoxicity (DAPI-positive ratio) (MOLT4 tumor cells): approximately 50%; cytotoxicity, more effective than FK866 (MOLT4 tumor cells): 20% |
